# Measurements as given in PubChem BioAssay (NCI).
#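 Each compound was tested at five concentrations against cells in 96-well plates for 48 hours. GI50 marks 50% less growth. Definition used: TGI = concentration required for complete inhibition of growth.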
# Columns and labels:
# Test in all cases: NCI tumour cell line growth inhibition, 48 h
# ACHN renal = system: ACHN renal
# MALME-3M melanoma = system: MALME-3M melanoma
# SF-539 CNS = system: SF-539 CNS
# SK-MEL-28 melanoma = system: SK-MEL-28 melanoma
# SNB-19 CNS = system: SNB-19 CNS
# SNB-75 CNS = system: SNB-75 CNS
# SW-620 colon = system: SW-620 colon
# COLO 205 colon = system: COLO 205 colon
# BT-549 breast = system: BT-549 breast
# HS 578T breast = system: HS 578T breast
structure (smiles),measurement,setting,value
C/C(=N\NC(=S)N(C)C)c1ncc[nH]1,TGI,ACHN renal,31.4 µM
same,TGI,MALME-3M melanoma,21.6 µM
same,TGI,SF-539 CNS,8.15 µM
same,TGI,SK-MEL-28 melanoma,> 100 µM
same,TGI,SNB-19 CNS,> 100 µM
same,TGI,SNB-75 CNS,85.9 µM
same,TGI,SW-620 colon,> 100 µM
CC(C)=CC(=O)Cc1nc2ccccc2[nH]c1=O,TGI,ACHN renal,> 100 µM
same,TGI,COLO 205 colon,> 100 µM
same,TGI,MALME-3M melanoma,> 100 µM
same,TGI,SF-539 CNS,> 100 µM
same,TGI,SK-MEL-28 melanoma,> 100 µM
same,TGI,SNB-19 CNS,> 100 µM
same,TGI,SNB-75 CNS,> 100 µM
same,TGI,SW-620 colon,> 100 µM
COc1ccc(Cl)cc1N1C(=O)C(Cl)=C(Nc2cccc(O)c2)C1=O,GI50,ACHN renal,16.9 µM
same,TGI,ACHN renal,48.6 µM
same,GI50,BT-549 breast,11.8 µM
same,TGI,BT-549 breast,46.2 µM
same,GI50,COLO 205 colon,21.6 µM
same,TGI,COLO 205 colon,57.1 µM
same,GI50,HS 578T breast,15.8 µM
same,TGI,HS 578T breast,46.2 µM
same,GI50,MALME-3M melanoma,14.5 µM
same,TGI,MALME-3M melanoma,50.4 µM
same,GI50,SK-MEL-28 melanoma,24.4 µM
same,TGI,SK-MEL-28 melanoma,83.8 µM
same,GI50,SNB-19 CNS,30.2 µM
same,TGI,SNB-19 CNS,> 100 µM
same,GI50,SW-620 colon,27.4 µM
same,TGI,SW-620 colon,63 µM
CCOC(=O)c1cc2c(cc1Cl)SC(N(c1ccc(F)cc1)S(=O)(=O)c1ccc(OC)cc1)=NS2(=O)=O,GI50,ACHN renal,18.5 µM
same,TGI,ACHN renal,42.1 µM
same,GI50,COLO 205 colon,12.5 µM
same,TGI,COLO 205 colon,27.6 µM
same,GI50,HS 578T breast,20.7 µM
same,TGI,HS 578T breast,51.3 µM
same,GI50,MALME-3M melanoma,14.9 µM
same,TGI,MALME-3M melanoma,32.8 µM
same,GI50,SF-539 CNS,9.61 µM
same,TGI,SF-539 CNS,22.7 µM
same,GI50,SK-MEL-28 melanoma,14.1 µM
same,TGI,SK-MEL-28 melanoma,29 µM
same,GI50,SNB-19 CNS,18.6 µM
same,TGI,SNB-19 CNS,51.2 µM
same,GI50,SNB-75 CNS,18.3 µM
same,TGI,SNB-75 CNS,47.4 µM
same,GI50,SW-620 colon,15.9 µM
same,TGI,SW-620 colon,30.6 µM
COc1ncnc2c(NC3OC(CO)C(O)C3O)ncnc12 (centres undefined),TGI,ACHN renal,> 53.7 µM
same,TGI,COLO 205 colon,7.54 µM
same,TGI,HS 578T breast,4.86 µM
same,TGI,MALME-3M melanoma,> 100 µM
same,TGI,SF-539 CNS,1.33 µM
same,TGI,SK-MEL-28 melanoma,> 100 µM
same,TGI,SNB-19 CNS,74 µM
same,TGI,SNB-75 CNS,6.38 µM
same,TGI,SW-620 colon,13.2 µM
CCCCCCCCCCCCCCCC(=O)NC1CCc2cc(O)c(O)c(O)c2-c2ccc(SC)c(=O)cc21 (centres undefined),TGI,ACHN renal,22.4 µM
same,TGI,COLO 205 colon,16.9 µM
same,TGI,MALME-3M melanoma,28.5 µM
same,TGI,SF-539 CNS,9.2 µM
same,TGI,SK-MEL-28 melanoma,20.9 µM
same,TGI,SNB-19 CNS,23.4 µM
same,TGI,SNB-75 CNS,9.13 µM
same,TGI,SW-620 colon,19 µM
CCN=C1NN=C(c2ccccc2)c2cc(Cl)ccc2N1,TGI,ACHN renal,> 100 µM
same,TGI,COLO 205 colon,35.4 µM
same,TGI,MALME-3M melanoma,33.7 µM
same,TGI,SF-539 CNS,35.8 µM
same,TGI,SK-MEL-28 melanoma,33.7 µM
same,TGI,SNB-19 CNS,> 100 µM
same,TGI,SNB-75 CNS,45.8 µM
same,TGI,SW-620 colon,63.8 µM
COc1cc2c(cc1OC)-c1c(cnn1C1OC(COC(C)=O)C(OC(C)=O)C(OC(C)=O)C1OC(C)=O)CC2 (centres undefined),TGI,ACHN renal,> 100 µM
same,TGI,COLO 205 colon,> 100 µM
same,TGI,SF-539 CNS,> 100 µM
same,TGI,SK-MEL-28 melanoma,> 100 µM
same,TGI,SNB-19 CNS,> 100 µM
same,TGI,SNB-75 CNS,98.2 µM
same,TGI,SW-620 colon,> 100 µM
O=C(O)C(/C=C/c1ccco1)=N\Nc1nc(-c2ccc(Cl)cc2)cs1,GI50,ACHN renal,14.6 µM
same,TGI,ACHN renal,> 50 µM
same,GI50,BT-549 breast,16.9 µM
same,TGI,BT-549 breast,> 50 µM
same,GI50,COLO 205 colon,12.5 µM
same,TGI,COLO 205 colon,45.8 µM
same,GI50,MALME-3M melanoma,35.8 µM
same,TGI,MALME-3M melanoma,> 50 µM
same,GI50,SF-539 CNS,14.6 µM
same,TGI,SF-539 CNS,> 50 µM
same,GI50,SK-MEL-28 melanoma,25.7 µM
same,TGI,SK-MEL-28 melanoma,> 50 µM
same,GI50,SNB-19 CNS,9.64 µM
same,TGI,SNB-19 CNS,> 50 µM
same,GI50,SNB-75 CNS,23.1 µM
same,TGI,SNB-75 CNS,> 50 µM
same,GI50,SW-620 colon,22.5 µM
same,TGI,SW-620 colon,> 50 µM
Nc1cc(N)c2nc(-c3ccccc3)c(Nc3ccc(F)cc3)nc2c1,GI50,ACHN renal,10.3 µM
same,TGI,ACHN renal,22.5 µM
same,GI50,BT-549 breast,11.9 µM
same,TGI,BT-549 breast,27.2 µM
same,GI50,COLO 205 colon,20.3 µM
same,TGI,COLO 205 colon,55.9 µM
same,GI50,HS 578T breast,19.1 µM
same,TGI,HS 578T breast,58.8 µM
same,GI50,SF-539 CNS,11 µM
same,TGI,SF-539 CNS,24.6 µM
same,GI50,SK-MEL-28 melanoma,20.4 µM
same,TGI,SK-MEL-28 melanoma,39.3 µM
same,GI50,SNB-19 CNS,22.1 µM
same,TGI,SNB-19 CNS,40 µM
same,GI50,SNB-75 CNS,20.8 µM
same,TGI,SNB-75 CNS,41.9 µM
same,GI50,SW-620 colon,13.6 µM
same,TGI,SW-620 colon,39.2 µM
C/C(=N\NC(N)=S)c1ccc2c(c1)OCO2,TGI,ACHN renal,> 100 µM
same,TGI,COLO 205 colon,> 100 µM
same,TGI,MALME-3M melanoma,> 100 µM
same,TGI,SF-539 CNS,> 100 µM
same,TGI,SK-MEL-28 melanoma,> 100 µM
same,TGI,SNB-19 CNS,> 100 µM
same,TGI,SNB-75 CNS,> 100 µM
same,TGI,SW-620 colon,> 100 µM
CC1(C)OC2C(CO)OC(n3ccc(=O)[nH]c3=O)C2O1 (centres undefined),TGI,ACHN renal,> 100 µM
same,TGI,BT-549 breast,> 100 µM
same,TGI,COLO 205 colon,> 100 µM
same,TGI,HS 578T breast,> 100 µM
same,TGI,SF-539 CNS,> 100 µM
same,TGI,SK-MEL-28 melanoma,> 100 µM
same,TGI,SNB-19 CNS,> 100 µM
same,TGI,SW-620 colon,> 100 µM
CCOC(=O)/C(C#N)=C(O)/C(=C/c1ccccc1Cl)NC(=O)c1ccccc1,TGI,ACHN renal,> 100 µM
same,TGI,COLO 205 colon,> 100 µM
same,TGI,MALME-3M melanoma,> 100 µM
same,TGI,SF-539 CNS,> 100 µM
same,TGI,SK-MEL-28 melanoma,> 100 µM
same,TGI,SNB-19 CNS,> 100 µM
same,TGI,SNB-75 CNS,> 100 µM
same,TGI,SW-620 colon,52.2 µM
O=C1CCC(c2nc3ccccc3o2)C(=O)N1 (centres undefined),TGI,ACHN renal,> 100 µM
same,TGI,COLO 205 colon,> 100 µM
same,TGI,MALME-3M melanoma,> 100 µM
same,TGI,SF-539 CNS,> 100 µM
same,TGI,SK-MEL-28 melanoma,> 100 µM
same,TGI,SNB-19 CNS,> 100 µM
same,TGI,SNB-75 CNS,> 100 µM
same,TGI,SW-620 colon,> 100 µM
OCCN(CO)CN(CN(CO)CCO)c1nc(N(CN(CO)CCO)CN(CO)CCO)nc(N(CN(CO)CCO)CN(CO)CCO)n1,GI50,ACHN renal,1.73 ng/mL
same,TGI,ACHN renal,6.27 ng/mL
same,GI50,HS 578T breast,1.74 ng/mL
same,TGI,HS 578T breast,45.1 ng/mL
same,GI50,SF-539 CNS,1.42 ng/mL
same,TGI,SF-539 CNS,3.91 ng/mL
same,GI50,SK-MEL-28 melanoma,1.05 ng/mL
same,TGI,SK-MEL-28 melanoma,1.88 ng/mL
same,GI50,SNB-19 CNS,2.32 ng/mL
same,TGI,SNB-19 CNS,744 ng/mL
same,GI50,SNB-75 CNS,0.723 ng/mL
same,TGI,SNB-75 CNS,2.41 ng/mL
same,GI50,SW-620 colon,0.55 ng/mL
same,TGI,SW-620 colon,6.27 ng/mL
O=C(Nc1ccc(C(F)(F)F)cc1[N+](=O)[O-])C(=O)C(C(=O)c1ccc2ccccc2c1)C1OC(=O)c2ccccc21 (centres undefined),TGI,ACHN renal,> 84.9 µM
same,TGI,COLO 205 colon,32.7 µM
same,TGI,MALME-3M melanoma,25.8 µM
same,TGI,SF-539 CNS,5.03 µM
same,TGI,SK-MEL-28 melanoma,18 µM
same,TGI,SNB-19 CNS,22.5 µM
same,TGI,SNB-75 CNS,23 µM
same,TGI,SW-620 colon,21.9 µM
CC1C(=O)N=C2C(=CN(Cc3ccccc3)c3ccccc32)C(=O)N1C (centres undefined),TGI,ACHN renal,> 100 µM
same,TGI,BT-549 breast,> 100 µM
same,TGI,COLO 205 colon,> 100 µM
same,TGI,MALME-3M melanoma,> 100 µM
same,TGI,SF-539 CNS,> 100 µM
same,TGI,SK-MEL-28 melanoma,> 100 µM
same,TGI,SNB-19 CNS,> 100 µM
same,TGI,SNB-75 CNS,> 100 µM
same,TGI,SW-620 colon,> 100 µM
O=C(CC(=O)Nc1ccc(Cl)cc1)NNCC(=O)Nc1nc(-c2ccccc2)cs1,TGI,COLO 205 colon,> 100 µM
same,TGI,SF-539 CNS,> 100 µM
same,TGI,SK-MEL-28 melanoma,> 100 µM
same,TGI,SNB-19 CNS,> 100 µM
same,TGI,SNB-75 CNS,> 100 µM
same,TGI,SW-620 colon,> 100 µM
O=[N+]([O-])c1ccc(Cc2nc3ccccc3s2)cc1,TGI,ACHN renal,> 100 µM
same,TGI,COLO 205 colon,> 100 µM
same,TGI,MALME-3M melanoma,> 100 µM
same,TGI,SF-539 CNS,70.4 µM
same,TGI,SK-MEL-28 melanoma,> 100 µM
same,TGI,SNB-19 CNS,> 100 µM
same,TGI,SNB-75 CNS,> 100 µM
same,TGI,SW-620 colon,> 100 µM
Cc1cccc(C(C)(C)C)c1NC(=O)CC1C(=O)Nc2ccccc2S1=O (centres undefined),TGI,ACHN renal,> 100 µM
same,TGI,COLO 205 colon,40.9 µM
same,TGI,MALME-3M melanoma,> 100 µM
same,TGI,SF-539 CNS,> 100 µM
same,TGI,SK-MEL-28 melanoma,> 100 µM
same,TGI,SNB-19 CNS,> 100 µM
same,TGI,SNB-75 CNS,> 100 µM
same,TGI,SW-620 colon,> 100 µM
N#CCCc1nc2ccc(Br)cc2c(=O)n1-c1ccc(O)c([N+](=O)[O-])c1,TGI,ACHN renal,> 100 µM
same,TGI,COLO 205 colon,47.9 µM
same,TGI,MALME-3M melanoma,33.3 µM
same,TGI,SF-539 CNS,34.4 µM
same,TGI,SK-MEL-28 melanoma,34.8 µM
same,TGI,SNB-75 CNS,83.2 µM
same,TGI,SW-620 colon,46.8 µM
